Laboratory results taken from the NIST ThermoML archive (doi:10.1016/j.tca.2012.11.008).

Experiment: mn = molality of the nth substance listed, in mol/kg
Settings: 101 kPa, Liquid; for speed of sound: Sing-around technique in a fixed-path interferometer; for mass density: Vibrating tube method

NC(CO)(CO)CO.O=C(c1ccccc1)c1ccc2n1CCC2C(=O)O (stereo unspecified) [ketorolac tromethamine] + O
Settings	mass density, 293.15 K [kg/m3]	mass density, 298.15 K [kg/m3]	mass density, 303.15 K [kg/m3]	mass density, 308.15 K [kg/m3]	mass density, 313.15 K [kg/m3]	speed of sound, 293.15 K [m/s]	speed of sound, 298.15 K [m/s]	speed of sound, 303.15 K [m/s]	speed of sound, 308.15 K [m/s]	speed of sound, 313.15 K [m/s]
m1 = 0.01	999.38	998.2	996.79	995.17	993.34	1485.6	1499.7	1512	1522.5	1531.5
m1 = 0.02	1000.35	999.17	997.75	996.11	994.28	1486.8	1500.7	1512.9	1523.3	1532.2
m1 = 0.03	1001.41	1000.21	998.78	997.13	995.29	1488.7	1502.5	1514.6	1524.9	1533.7
m1 = 0.04	1002.57	1001.23	999.83	998.13	996.22	1491	1504.7	1516.7	1527	1535.7
m1 = 0.05	1003.3	1002.07	1000.62	998.96	997.1	1492.1	1505.7	1517.6	1527.7	1536.3
m1 = 0.075	1006.13	1004.88	1003.4	1001.71	999.82	1497.4	1510.7	1522.3	1532.2	1540.5
m1 = 0.1	1008.75	1007.46	1005.95	1004.24	1002.31	1501.5	1514.5	1525.8	1535.5	1543.6
m1 = 0.125	1011.43	1010.1	1008.54	1006.74	1004.79	1506	1518.8	1530	1539.4	1547.3
m1 = 0.15	1014.02	1012.67	1011.11	1009.34	1007.39	1509.9	1522.5	1533.4	1542.7	1550.4
m1 = 0.175	1016.56	1015.19	1013.63	1011.84	1009.86	1514.6	1527.1	1538	1547.2	1554.6
m1 = 0.2	1019.22	1017.8	1016.15	1014.32	1012.32	1518.9	1531.4	1542.3	1550.8	1558.1
m1 = 0.25	1024.63	1023.16	1021.49	1019.63	1017.59	1525.6	1537.4	1547.6	1556	1563

O [water] + NC(CO)(CO)CO.O=C(c1ccccc1)c1ccc2n1CCC2C(=O)O
Settings	speed of sound [m/s]
313.15 K, m2 = 0	1529.1
